Experimental data taken from patent US11000509B2, “Methods and compositions for daily ophthalmic administration of phentolamine to improve visual performance” (Ocuphire Pharma, Inc., priority 2013, dated 2021).
Structures can show the parent of a compound that is named as a salt. Where two headings read alike, the source gives them in different places.

Legend:
[1] = test system: eyes of patients with pupil size in dim light of greater than 7 mm; design: species or system humans; settings: human, in vivo
Experimental: (§1) Sixteen patients were randomized into four groups (of four subjects each). Each group was treated on three successive study visits separated by at least 4 days with one drop of ophthalmic oxymetazoline solution (Visine LR®) in each eye followed by one drop test article in each eye. The test article was a 0.2% (w/v) phentolamine mesylate solution, 0.4% (w/v) phentolamine mesylate solution, 0.8% (w/v) phentolamine mesylate solution, or placebo. Test articles contained the designed amount of phentolamine mesylate in a solution of Tears Naturale II® (from Alcon Labs). Placebo was just Tears Naturale II® (from Alcon Labs). Tears Naturale II® (from Alcon Labs) contains Dextran 70 (0.1% by weight), Hydroxypropyl Methylcellulose 2910 (0.3% by weight), Polyquarternium-1 (0.001% by weight), potassium chloride, water (purified), sodium borate, sodium chloride, and hydrochloric acid and/or sodium hydroxide as necessary to adjust the pH. The patients' eye redness and pupil diameters were recorded at baseline (i.e., prior to treatment administration), and at 30 minutes, 1 hour, 2 hours, 4 hours, and 8 hours after administration of test articles. The incidence of any treatment-emergent adverse events was also recorded. Total study duration was approximately nine hours.
(§2) Eye redness of patients' eyes was evaluated by the research assistant and recorded as a single integer of value 0 (no redness) to 4 (extreme redness) at baseline and each time point after treatment. Pupil diameters were measured to within 0.1 mm for each eye at baseline and each subsequent time point using a NeurOptics™ pupilometer. Monocular high contrast visual acuity was measured for each eye under photopic conditions at baseline and each subsequent time point in a darkened room using a Precision Vision™ High Contrast (100% tint) Visual Acuity Chart (Catalog #2102) backlit by the Precision Vision Illumination Box. Monocular low contrast visual acuity was measured for each eye under photopic conditions at baseline and each subsequent time point in a darkened room using a Precision Vision™ Low Contrast (5% tint) Visual Acuity Chart (Catalog #2186) backlit by the Precision Vision Illumination Box. Effect of treatment on glare was assessed using an experimental test method consisting of a panel with a high wattage central light emitting diode (LED) and a set of 7 lower wattage red LEDs radiating horizontally and vertically from the central light.
Comparisons of changes in mean values within treatment groups were tested for significance using two-tailed paired two sample t-tests with a threshold for significance set at p<0.01 (Bonferroni Correction for multiple paired t-tests). […] Differences in mean eye redness between treatment groups were evaluated using Kruskal-Wallis nonparametric testing. […]

[2] = test system: eyes of patients with pupil size in dim light of greater than 7 mm; experiment: Example 2 clinical study: monocular high contrast visual acuity under photopic conditions (100% tint chart); type: in vivo, humans
Experimental: as §1, §2
Comparisons of changes in mean values within treatment groups were tested for significance using two-tailed paired two sample t-tests with a threshold for significance set at p<0.01 (Bonferroni Correction for multiple paired t-tests). Differences between treatment groups with respect to mean values for pupil size over the course of the study were tested for significance using repeated measure ANOVA (which discards data from subjects lacking any data points). Differences in mean eye redness between treatment groups were evaluated using Kruskal-Wallis nonparametric testing. Differences in means between treatment groups at individual time points were tested for significance using one-way ANOVA.

[3] = test system: eyes of patients suffering from severe night vision difficulty; experiment: Example 1 clinical study: eye redness, CCLRU Redness Grading Scale regraded 0, 0.5, 1, 2, 3; type: in vivo, humans
From the text: Sixty patients with normal day vision (i.e., 20/40 or better) but which suffer from severe night vision difficulty were enrolled in the study. During the first period of the study, patients were randomized into three groups. The groups received either placebo, 0.5% (w/v) phentolamine mesylate, or 1.0% (w/v) phentolamine mesylate once daily for 15 days. […] During the second period of the study, all sixty patients were instructed to administer an ophthalmic solution of phentolamine mesylate (1% (w/v)) as needed, but no more than once daily to each eye. The ophthalmic solution of phentolamine mesylate contained: 1% (w/v) phentolamine mesylate, 4% (w/v) mannitol, 3 mM sodium acetate, and water. The placebo was a solution containing 4% (w/v) mannitol, 3 mM sodium acetate, and water.
Patients were to meet with a clinician for evaluation on study days 1, 4, 8, 15, and a post-dosing follow-up evaluation three or more days after administering the last dose in the second period. […]

[4] = 0.2% (w/v) solution, 30 min after treatment
[5] = 0.2% (w/v) solution, 1 hour after treatment
[6] = 0.2% (w/v) solution, 2 hours after treatment
[7] = 0.2% (w/v) solution, 4 hours after treatment
[8] = 0.2% (w/v) solution, 8 hours after treatment
[9] = 0.2% (w/v) solution, Baseline, prior to treatment
[10] = 0.4% (w/v) solution, 30 min after treatment
[11] = 0.4% (w/v) solution, 1 hour after treatment
[12] = 0.4% (w/v) solution, 2 hours after treatment
[13] = 0.4% (w/v) solution, 4 hours after treatment
[14] = 0.4% (w/v) solution, 8 hours after treatment
[15] = 0.4% (w/v) solution, Baseline, prior to treatment
[16] = 0.8% (w/v) solution, 30 min after treatment
[17] = 0.8% (w/v) solution, 1 hour after treatment
[18] = 0.8% (w/v) solution, 2 hours after treatment
[19] = 0.8% (w/v) solution, 4 hours after treatment
[20] = 0.8% (w/v) solution, 8 hours after treatment
[21] = 0.8% (w/v) solution, Baseline, prior to treatment

Cc1ccc(N(CC2=NCCN2)c2cccc(O)c2)cc1 [Phentolamine Mesylate, phentolamine mesylate] was tested, and the “Range of eye redness scores” value [1] was 0-1, the eye redness [1] was “modest increase in eye redness” and the “mean eye redness versus placebo” value [1] was “did not differ from placebo”. The “Range of eye redness scores” value ([1]; 30 min) was 0-1, the “Maximum high contrast visual acuity” value [2, 4] was 0.22 LogMar and the “Mean high contrast visual acuity” value [2, 4] was 0.05 LogMar. The “Minimum high contrast visual acuity” value [2, 4] was −0.32 LogMar, the “Maximum high contrast visual acuity” value [2, 5] was 0.22 LogMar and the “Mean high contrast visual acuity” value [2, 5] was 0.08 LogMar. The “Minimum high contrast visual acuity” value [2, 5] was −0.20 LogMar, the “Maximum high contrast visual acuity” value [2, 6] was 0.26 LogMar and the “Mean high contrast visual acuity” value [2, 6] was 0.08 LogMar. For the same compound, the “Minimum high contrast visual acuity” value [2, 6] was −0.22 LogMar, the “Maximum high contrast visual acuity” value [2, 7] was 0.22 LogMar and the “Mean high contrast visual acuity” value [2, 7] was 0.09 LogMar. The “Minimum high contrast visual acuity” value [2, 7] was −0.20 LogMar, the “Maximum high contrast visual acuity” value [2, 8] was 0.22 LogMar and the “Mean high contrast visual acuity” value [2, 8] was 0.08 LogMar. The “Minimum high contrast visual acuity” value [2, 8] was −0.32 LogMar, the “Maximum high contrast visual acuity” value [2, 9] was 0.22 LogMar and the “Mean high contrast visual acuity” value [2, 9] was 0.04 LogMar. For the same compound, the “Minimum high contrast visual acuity” value [2, 9] was −0.32 LogMar, the “Maximum high contrast visual acuity” value [2, 10] was 0.22 LogMar and the “Mean high contrast visual acuity” value [2, 10] was 0.12 LogMar. For the same compound, the “Minimum high contrast visual acuity” value [2, 10] was −0.20 LogMar, the “Maximum high contrast visual acuity” value [2, 11] was 0.26 LogMar and the “Mean high contrast visual acuity” value [2, 11] was 0.11 LogMar. The “Minimum high contrast visual acuity” value [2, 11] was −0.20 LogMar, the “Maximum high contrast visual acuity” value [2, 12] was 0.30 LogMar and the “Mean high contrast visual acuity” value [2, 12] was 0.14 LogMar. The “Minimum high contrast visual acuity” value [2, 12] was −0.10 LogMar, the “Maximum high contrast visual acuity” value [2, 13] was 0.30 LogMar and the “Mean high contrast visual acuity” value [2, 13] was 0.15 LogMar. The “Minimum high contrast visual acuity” value [2, 13] was −0.11 LogMar, the “Maximum high contrast visual acuity” value [2, 14] was 0.30 LogMar and the “Mean high contrast visual acuity” value [2, 14] was 0.13 LogMar. For the same compound, the “Minimum high contrast visual acuity” value [2, 14] was −0.18 LogMar, the “Maximum high contrast visual acuity” value [2, 15] was 0.22 LogMar and the “Mean high contrast visual acuity” value [2, 15] was 0.09 LogMar. For the same compound, the “Minimum high contrast visual acuity” value [2, 15] was −0.24 LogMar, the “Maximum high contrast visual acuity” value [2, 16] was 0.22 LogMar and the “Mean high contrast visual acuity” value [2, 16] was 0.11 LogMar. For the same compound, the “Minimum high contrast visual acuity” value [2, 16] was −0.16 LogMar, the “Maximum high contrast visual acuity” value [2, 17] was 0.26 LogMar and the “Mean high contrast visual acuity” value [2, 17] was 0.12 LogMar. For the same compound, the “Minimum high contrast visual acuity” value [2, 17] was −0.10 LogMar, the “Maximum high contrast visual acuity” value [2, 18] was 0.30 LogMar and the “Mean high contrast visual acuity” value [2, 18] was 0.12 LogMar. For the same compound, the “Minimum high contrast visual acuity” value [2, 18] was −0.16 LogMar, the “Maximum high contrast visual acuity” value [2, 19] was 0.30 LogMar and the “Mean high contrast visual acuity” value [2, 19] was 0.12 LogMar. For the same compound, the “Minimum high contrast visual acuity” value [2, 19] was −0.20 LogMar, the “Maximum high contrast visual acuity” value [2, 20] was 0.30 LogMar and the “Mean high contrast visual acuity” value [2, 20] was 0.13 LogMar. For the same compound, the “Minimum high contrast visual acuity” value [2, 20] was −0.20 LogMar, the “Maximum high contrast visual acuity” value [2, 21] was 0.22 LogMar and the “Mean high contrast visual acuity” value [2, 21] was 0.06 LogMar. The “Minimum high contrast visual acuity” value [2, 21] was −0.41 LogMar, the “maximal mean increase in high contrast visual acuity” value ([2]; 0.8%, at 4 and 8 hours) was 0.06 Log Mar and the “improvement in high contrast vision” value ([2]; 0.8%, at 4 and 8 hours, equivalent of the maximal mean increase) was ~3 letters on a Snellen chart. For the same compound, the eye redness ([3]; immediately after administration (FIG. 5)) was “increases” and the eye redness ([3]; measured prior to administration on days 4, 8, and 15 (FIG. 5)) was “returns to baseline”.
